This note sets out measurements from PubChem BioAssay (NCI).

Among the test systems are HT29 colon; HCC-2998 colon; KM12 colon; SF-539 CNS; NCI-H23 lung; BT-549 breast; OVCAR-4 ovarian; ACHN renal; MDA-MB-435; SF-268 CNS.
Holding throughout (assay): growth of human tumour cells (NCI), 48 h

“And” between values parts separate entries of the source, which are not always exact repeats. Equal entries are not always repeated.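 Protocol summary: plate cells (96-well), add compound at 5 concentrations, incubate 48 h, interpolate endpoints linearly. GI50 marks 50% less growth. TGI: concentration producing complete growth inhibition.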 Where only a bound is given, the exact number is not on record here.

Consider `C[C@@H]1COC(Nc2ccc3ncnc(Nc4ccc(OCc5nccs5)c(Cl)c4)c3c2)=N1`, for which the GI50 with HT29 colon is 5.04 µM and 4.33 µM; in the experiment with HCC-2998 colon, > 10 µM and 11.9 µM; with KM12 colon, 4.38 µM and 4.14 µM; in the experiment on SF-539 CNS, > 10 µM and 11.9 µM; in the experiment with NCI-H23 lung, 8.41 µM and 8.45 µM; in the experiment on BT-549 breast, 3.65 µM and 3.28 µM. The GI50 in the experiment on OVCAR-4 ovarian is 5.72 µM and 3.79 µM; with ACHN renal it was 0.446 µM and 0.432 µM; in the experiment on MDA-MB-435, 6.2 µM and 6.24 µM; with SF-268 CNS, 6.27 µM and 5.59 µM. Moreover, the TGI in the experiment with HT29 colon is > 10 µM and 17.8 µM; in the experiment with HCC-2998 colon, > 10 µM and 39.6 µM; with KM12 colon, > 10 µM and 33.8 µM; in the experiment on SF-539 CNS, > 10 µM and 29.1 µM; in the experiment on NCI-H23 lung it was > 10 µM and 37 µM; in the experiment on BT-549 breast, > 10 µM and 12.4 µM. Also, the TGI was > 10 µM and 17.3 µM with OVCAR-4 ovarian; > 10 µM and 16.6 µM in the experiment on ACHN renal; > 10 µM and 23.1 µM in the experiment on MDA-MB-435; > 10 µM and 27.7 µM in the experiment with SF-268 CNS.

With `Cc1cn2c(=O)n(c1=O)Cc1ccccc1C2`, the GI50 with HT29 colon is above 100 µM; in the experiment with HCC-2998 colon it was above 100 µM; in the experiment with KM12 colon, above 100 µM; in the experiment with SF-539 CNS, above 100 µM; in the experiment on NCI-H23 lung, above 100 µM; with BT-549 breast, 48.4 µM. Besides, the GI50 was above 100 µM in the experiment on OVCAR-4 ovarian, above 100 µM in the experiment on ACHN renal, above 100 µM in the experiment on MDA-MB-435 and 38.6 µM in the experiment with SF-268 CNS. In addition, the TGI in the experiment with HT29 colon, in the experiment with HCC-2998 colon, with KM12 colon, in the experiment with SF-539 CNS, with NCI-H23 lung and in the experiment with BT-549 breast was above 100 µM each time. Moreover, the TGI with OVCAR-4 ovarian, in the experiment with ACHN renal, in the experiment on MDA-MB-435 and in the experiment on SF-268 CNS was above 100 µM each time.

On to `Cc1ccc2[nH]c(C(=O)NN3C(=O)C(C)SC34CCCCC4C)c(-c3ccccc3)c2c1` (stereo not given), for which the GI50 was 15.5 µM in the experiment with HT29 colon; 19.5 µM in the experiment on HCC-2998 colon; 18.5 µM in the experiment with KM12 colon; 22.3 µM in the experiment with SF-539 CNS; 24.7 µM in the experiment with NCI-H23 lung; 18.8 µM with BT-549 breast. The GI50 with OVCAR-4 ovarian was 15.9 µM; with ACHN renal it was 17.3 µM; with MDA-MB-435, 16.4 µM; in the experiment with SF-268 CNS, 18.8 µM. Further, the TGI in the experiment on HT29 colon came out at 39.3 µM; with HCC-2998 colon, 35.5 µM; in the experiment with KM12 colon it was 39.9 µM; with SF-539 CNS, 44.9 µM; in the experiment on NCI-H23 lung, 53.5 µM; in the experiment on BT-549 breast, 34.5 µM. Besides, the TGI in the experiment with OVCAR-4 ovarian was 36.1 µM; with ACHN renal, 36.6 µM; with MDA-MB-435 it was 33.1 µM; in the experiment with SF-268 CNS, 43.6 µM.

As for `O=C(/C=C\c1ccc2ccccc2n1)c1cc(Cl)ccc1O`, the GI50 with HT29 colon was 4.2 µM; in the experiment with HCC-2998 colon it was 14.6 µM; with KM12 colon it was 8.71 µM; in the experiment with SF-539 CNS, 7.15 µM; in the experiment with NCI-H23 lung, 5.9 µM; with BT-549 breast, 4.82 µM. In addition, the GI50 is 5.25 µM with OVCAR-4 ovarian, 8.32 µM in the experiment on ACHN renal, 3.66 µM with MDA-MB-435 and 12.2 µM in the experiment with SF-268 CNS. The TGI stood at 31.5 µM with HT29 colon; 28.3 µM with HCC-2998 colon; 24.5 µM in the experiment on KM12 colon; 23.2 µM with SF-539 CNS; 19.7 µM in the experiment with NCI-H23 lung; 17 µM with BT-549 breast. Besides, the TGI in the experiment on OVCAR-4 ovarian was found to be 24.6 µM; in the experiment on ACHN renal, 21.4 µM; in the experiment with MDA-MB-435, 21.7 µM; with SF-268 CNS it was 27.2 µM.

Turning to `Cc1cc(C)c2c(N)c3cccc(C)c3nc2n1`, the GI50 in the experiment on HT29 colon was 0.994 µM; in the experiment with HCC-2998 colon it was 1.94 µM; with KM12 colon it was 3.32 µM; in the experiment with SF-539 CNS, 1.61 µM; with NCI-H23 lung, 1.59 µM; with BT-549 breast it was 3.48 µM. Further, the GI50 in the experiment with OVCAR-4 ovarian is 2.29 µM; in the experiment on ACHN renal, 0.852 µM; with MDA-MB-435, 2.26 µM; with SF-268 CNS, 2.15 µM. The TGI with HT29 colon is 5.27 µM; in the experiment on HCC-2998 colon, 4.92 µM; in the experiment on KM12 colon, 9.69 µM; in the experiment with SF-539 CNS it was 5.01 µM; in the experiment with NCI-H23 lung, 3.96 µM; in the experiment with BT-549 breast it was 20.2 µM. Also, the TGI worked out at 8.1 µM in the experiment on OVCAR-4 ovarian, 5.08 µM in the experiment on ACHN renal, 8.62 µM with MDA-MB-435 and 6.3 µM in the experiment on SF-268 CNS.

Consider `Oc1ccc(CN(Cc2ccc(C(F)(F)F)cc2)Cc2ccc(O)c3ncccc23)c2cccnc12`, for which the GI50 with HT29 colon was 0.0717 µM; with HCC-2998 colon, 0.0496 µM; in the experiment on KM12 colon, 0.0415 µM; with SF-539 CNS, 0.0465 µM; in the experiment with NCI-H23 lung, 0.0245 µM; in the experiment with BT-549 breast, 0.0297 µM. Moreover, the GI50 in the experiment with OVCAR-4 ovarian is 0.0429 µM; with ACHN renal it was 0.0256 µM; with MDA-MB-435, 0.0214 µM; in the experiment with SF-268 CNS, 0.0487 µM. The TGI in the experiment with HT29 colon is above 100 µM; in the experiment with HCC-2998 colon it was above 100 µM; in the experiment with KM12 colon, above 100 µM; with SF-539 CNS it was above 64.1 µM; in the experiment with NCI-H23 lung, above 100 µM; with BT-549 breast, above 100 µM. Further, the TGI in the experiment with OVCAR-4 ovarian, in the experiment with ACHN renal, with MDA-MB-435 and with SF-268 CNS was above 100 µM in each case.

Take `Cc1ccccc1C(C(=O)NC1CCCCC1)N(C(=O)Cn1ccnc1C)c1cccc(F)c1` (stereo not given): the GI50 in the experiment with HT29 colon is above 100 µM; in the experiment with HCC-2998 colon, above 100 µM; in the experiment with KM12 colon, above 100 µM; in the experiment with SF-539 CNS it was 33.1 µM; with NCI-H23 lung it was above 58 µM; in the experiment with BT-549 breast it was above 52.6 µM. In addition, the GI50 is above 76.7 µM with OVCAR-4 ovarian, above 58.7 µM in the experiment with ACHN renal, above 100 µM with MDA-MB-435 and above 66.5 µM in the experiment on SF-268 CNS. For the same molecule, the TGI is above 100 µM in the experiment on HT29 colon; above 100 µM in the experiment with HCC-2998 colon; above 100 µM in the experiment with KM12 colon; above 66.5 µM with SF-539 CNS; above 100 µM in the experiment with NCI-H23 lung; above 100 µM in the experiment with BT-549 breast. Also, the TGI in the experiment on OVCAR-4 ovarian, with ACHN renal, in the experiment with MDA-MB-435 and in the experiment with SF-268 CNS was above 100 µM in each case.
